Test results reported in US6175020A, “Spirodiamino acid scaffold for combinatorial synthesis” (Pharmacopeia, Inc., priority 1999, dated 2001).

Molecular target: plasmepsin II (Plasmodium falciparum, UniProt P46925)
Experiment: Biological Assay for Plasmepsin II (EDANS fluorescence)
Type: biochemical
Settings: 4 nM plasmepsin II, 6 μM plasmepsin substrate, pH 5.0, 10 minutes at 25° C.
Procedure: Biological Assay for Plasmepsin II
The assay mix contained 50 mM sodium acetate (pH 5.0), 1 mg/ml BSA, 0.01% Tween 20, 12.5% glycerol, 18% DMSO and 12 μM plasmepsin substrate. Twenty five μL of the assay mix is added to each well of the 96-well microtiter plate containing dried down bead eluate or empty control wells. The plates are then sonicated and mixed. Then 25 μL of 8 nM plasmepsin II which is in 50 mM sodium acetate (pH 5.0), 1 mg/ml BSA, 0.01% Tween 20, and 12.5% glycerol, is added to the assay mix. The final concentrations are 4 nM plasmepsin II, 6 μM plasmepsin substrate, 9% DMSO, 50 mM sodium acetate (pH 5.0), 1 mg/ml BSA, 0.01% Tween 20, and 12.5% glycerol. The reaction is incubated for 10 minutes at 25° C. and then quenched by the addition of 25 μL of 1 M Tris (pH 8.5) and 50% DMSO to achieve a final concentration of 0.33 M Tris and 23% DMSO. The EDANS fluorescence was measured using the Tecan, SLT FLUOSTAR® fluorescence plate reader with an excitation filter of 350 nm and an emission filter 510 nm. The background was determined by 25 μL of 50 mM sodium acetate (pH 5.0), 1 mg/ml BSA, 0.01% Tween 20, and 12.5% glycerol without enzyme. Compound 23 was active at <1 millimolar concentration.

Sequence of plasmepsin II (P46925 125-453): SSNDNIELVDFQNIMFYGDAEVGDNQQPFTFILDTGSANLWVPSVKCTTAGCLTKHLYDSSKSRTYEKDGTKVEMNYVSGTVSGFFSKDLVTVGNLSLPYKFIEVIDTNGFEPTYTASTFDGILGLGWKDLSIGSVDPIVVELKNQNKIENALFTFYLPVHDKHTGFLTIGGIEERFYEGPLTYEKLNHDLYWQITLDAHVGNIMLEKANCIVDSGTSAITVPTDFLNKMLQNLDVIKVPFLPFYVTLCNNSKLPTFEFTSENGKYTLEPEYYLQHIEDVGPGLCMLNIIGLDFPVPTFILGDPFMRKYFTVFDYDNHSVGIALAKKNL

- concentration at which compound was active: < 1 millimolar
- IC50 (read-out: IC50 (plasmepsin inhibitor)): < 1 mM
Compound: C=CCOC(=O)N1C(CC(=O)NCCc2cc(OC)cc(OC)c2)CCC12CCCC2CNC(=O)C[C@H](O)[C@H](CC(C)C)NC(=O)OC(C)(C)C (relative stereo) [Compound 23]
